Biological target: T1, USP28 (His-tagged USP28-FL-mammalian) (Homo sapiens, UniProt Q96RU2)
T1 construct: Expression of USP28 (1-1077)-TEV-6*His (pTT5 vector); made in house; host or cells: Expi293f cells (pTT5 vector)
T1 sequence (Q96RU2 1-1077): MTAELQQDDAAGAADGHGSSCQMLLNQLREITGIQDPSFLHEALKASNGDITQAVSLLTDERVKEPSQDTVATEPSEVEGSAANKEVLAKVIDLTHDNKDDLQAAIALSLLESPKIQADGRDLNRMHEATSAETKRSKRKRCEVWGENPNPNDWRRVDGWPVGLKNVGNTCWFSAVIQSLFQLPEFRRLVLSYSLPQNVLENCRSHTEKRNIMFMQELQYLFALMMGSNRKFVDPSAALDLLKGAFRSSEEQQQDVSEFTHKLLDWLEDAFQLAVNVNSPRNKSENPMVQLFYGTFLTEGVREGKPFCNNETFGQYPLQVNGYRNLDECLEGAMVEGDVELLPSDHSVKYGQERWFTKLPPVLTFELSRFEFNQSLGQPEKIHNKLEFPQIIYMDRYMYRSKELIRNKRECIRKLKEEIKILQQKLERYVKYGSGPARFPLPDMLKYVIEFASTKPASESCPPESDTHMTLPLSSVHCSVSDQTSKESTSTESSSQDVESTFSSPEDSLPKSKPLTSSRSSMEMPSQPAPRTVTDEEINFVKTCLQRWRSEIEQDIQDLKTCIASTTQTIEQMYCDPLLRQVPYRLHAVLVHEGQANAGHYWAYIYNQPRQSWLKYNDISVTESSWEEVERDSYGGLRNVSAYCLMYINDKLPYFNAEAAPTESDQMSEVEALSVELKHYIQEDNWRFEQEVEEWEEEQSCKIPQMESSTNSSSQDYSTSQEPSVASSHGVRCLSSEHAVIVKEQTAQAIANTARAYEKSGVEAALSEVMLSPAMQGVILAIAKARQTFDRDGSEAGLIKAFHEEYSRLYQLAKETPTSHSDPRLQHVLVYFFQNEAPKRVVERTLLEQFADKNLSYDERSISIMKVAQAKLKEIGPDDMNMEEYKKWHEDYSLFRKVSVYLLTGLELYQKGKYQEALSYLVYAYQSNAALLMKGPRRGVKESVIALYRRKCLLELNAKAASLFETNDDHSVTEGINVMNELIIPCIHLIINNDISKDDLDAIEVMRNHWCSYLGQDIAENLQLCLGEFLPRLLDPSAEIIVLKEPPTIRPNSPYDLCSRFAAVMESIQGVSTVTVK
Test: Ubiquitin-Rhodamine 110 Assay for USP28 Activity, Example A-1(a)
Assay type: biochemical
Conditions: Ubiquitin-Rhodamine 110 assay, Example A-1(a); read-out: USP28 A-1(a) IC50 range
How it was run: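 Full-length His-tagged human USP28 (1-1077, Expi293f-expressed), […], with 25 nM Ub-Rh110 (<<Km) in pH 8.0 Tris buffer with BME, BGG, Triton X-100. 10-point dilutions (25 μM-1.3 nM), 45 min at room temperature, citric acid stop, fluorescence 485/535 nm; IC50 by 4-parameter fit.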

Row | SMILES | IC50
1 | Cc1cnc2c(N)c(C(=O)N[C@H]3CCc4cc(N5CC6COCC(C5)N6)ccc4C3)sc2n1 [Example 456, N-((2S)-6-(3-oxa-7,9-diazabicyclo[3.3.1]nonan-7-yl)-1,2,3,4-tetrahydronaphthalen-2-yl)-7-amino-3-methylthieno[2,3-b]pyrazine-6-carboxamide] | 50 to 200 nM
2 | Cc1ccc2c(N)c(C(=O)N[C@H]3CCc4nc(N5C[C@@H](N)[C@@H](C(F)F)C5)ccc4C3)sc2n1 [Example 346, 3-amino-N-[(6S)-2-[(3S,4S)-3-amino-4-(difluoromethyl)pyrrolidin-1-yl]-5,6,7,8-tetrahydroquinolin-6-yl]-6-methylthieno[2,3-b]pyridine-2-carboxamide] | 50 to 200 nM
3 | O=C(N[C@H]1COc2cc(N3CCNCC3)ccc2C1)c1ccc(NCc2ccc3c(c2)OCCO3)nc1 [Example 471, (R)-6-(((2,3-dihydrobenzo[b][1,4]dioxin-6-yl)methyl)amino)-N-(7-(piperazin-1-yl)chroman-3-yl)nicotinamide] | 200 to 2000 nM
4 | O=C(N[C@@H]1CCc2c(c(F)cc(N3CC4CCC(C3)N4)c2C(F)F)C1)c1cnc2c(c1)[C@@H]1C[C@@H]1CN2 (single isomer, unassigned) [Example 361] | > 2000 nM
5 | O=C(N[C@@H]1CCc2c(c(F)cc(N3CC4CCC(C3)N4)c2C(F)F)C1)c1cnc2c(c1)[C@H]1C[C@H]1CN2 (single isomer, unassigned) [Example 362] | 200 to 2000 nM
6 | Cc1cnc2c(N)c(C(=O)N[C@@H]3CCc4cc(N5CCCNCC5)ccc4C3)sc2n1 [Example 452, (R)-N-(6-(1,4-diazepan-1-yl)-1,2,3,4-tetrahydronaphthalen-2-yl)-7-amino-3-methylthieno[2,3-b]pyrazine-6-carboxamide] | 200 to 2000 nM
7 | Cc1ccc2c(N)c(C(=O)N[C@H]3CCc4nc(N5C[C@@H](N)[C@]6(CCCO6)C5)ccc4C3)sc2n1 [Example 391, 3-amino-N-[(6S)-2-[(5S,9R)-9-amino-1-oxa-7-azaspiro[4.4]nonan-7-yl]-5,6,7,8-tetrahydroquinolin-6-yl]-6-methylthieno[2,3-b]pyridine-2-carboxamide] | 50 to 200 nM
8 | O=C(N[C@H]1COc2cc(N3CCNCC3)ccc2C1)c1cnn2cc(Cl)ccc12 [Example 462, (R)-6-chloro-N-(7-(piperazin-1-yl)chroman-3-yl)pyrazolo[1,5-a]pyridine-3-carboxamide] | > 2000 nM
9 | Cc1cc(C)c2c(N)c(C(=O)N[C@H]3CCc4nc(N5CC6CCC(C5)N6)ccc4C3)sc2n1 [Example 354, 3-amino-N-[(6S)-2-{3,8-diazabicyclo[3.2.1]octan-3-yl}-5,6,7,8-tetrahydroquinolin-6-yl]-4,6-dimethylthieno[2,3-b]pyridine-2-carboxamide] | 1 to 50 nM
10 | Cc1ccc2c(N)c(C(=O)N[C@H]3COc4cc(N5CCN[C@H](C(F)(F)F)C5)ccc4C3)sc2n1 [Example 3-12, 3-amino-6-methyl-N-((R)-7-((S)-3-(trifluoromethyl)piperazin-1-yl)chroman-3-yl)thieno[2,3-b]pyridine-2-carboxamide] | 50 to 200 nM
11 | Cc1ccc2c(N)c(C(=O)N[C@H]3COc4c(cc(F)c(N5CCNCC5)c4F)C3)sc2n1 (single isomer, unassigned) [Example 3-17] | 1 to 50 nM
12 | Cc1ccc2c(N)c(C(=O)N[C@H]3COc4cc(N5CC[C@@]6(CCCNC6)C5)ccc4C3)sc2n1 [Example 3-14, N-((R)-7-((R)-2,7-diazaspiro[4.5]decan-2-yl)chroman-3-yl)-3-amino-6-methylthieno[2,3-b]pyridine-2-carboxamide] | 1 to 50 nM
13 | Cc1ccc2c(N)c(C(=O)N[C@H]3COc4cc(N5CC[C@@H](C(=O)O)C5)ccc4C3)sc2n1 [Example 6-2, (R)-1-((R)-3-(3-amino-6-methylthieno[2,3-b]pyridine-2-carboxamido)chroman-7-yl)pyrrolidine-3-carboxylic acid] | 50 to 200 nM
14 | Cc1ccc2c(N)c(C(=O)N[C@H]3COc4cc(N5CCS(=O)(=O)CC5)ccc4C3)sc2n1 [Example 5-2, (R)-3-amino-N-(7-(1,1-dioxidothiomorpholino)chroman-3-yl)-6-methylthieno[2,3-b]pyridine-2-carboxamide] | 1 to 50 nM
15 | Cc1ccc2c(N)c(C(=O)N[C@H]3COc4cc(N5CCC(O)CC5)ccc4C3)sc2n1 [Example 7-1, (R)-3-amino-N-(7-(4-hydroxypiperidin-1-yl)chroman-3-yl)-6-methylthieno[2,3-b]pyridine-2-carboxamide] | 1 to 50 nM
16 | Cc1ccc2c(N)c(C(=O)N[C@H]3COc4cc(N5CC[C@H](C(=O)O)C5)ccc4C3)sc2n1 [Example 6-3, (S)-1-((R)-3-(3-amino-6-methylthieno[2,3-b]pyridine-2-carboxamido)chroman-7-yl)pyrrolidine-3-carboxylic acid] | 50 to 200 nM
17 | CCn1ccc2cc(C(=O)N[C@H]3CCc4nc(N5C[C@H](OC)[C@@H](N)C5)ccc4C3)cnc21 [Example 353, N-[(6S)-2-[(3S,4S)-3-amino-4-methoxypyrrolidin-1-yl]-5,6,7,8-tetrahydroquinolin-6-yl]-1-ethyl-1H-pyrrolo[2,3-b]pyridine-5-carboxamide] | 200 to 2000 nM
18 | Cc1cccc2c(C(=O)N[C@H]3COc4cc(N5CCNCC5)ccc4C3)cnn12 [Example 458, (R)-7-methyl-N-(7-(piperazin-1-yl)chroman-3-yl)pyrazolo[1,5-a]pyridine-3-carboxamide] | 1 to 50 nM
19 | Cc1ccc2c(N)c(C(=O)N[C@H]3COc4cc(N5CC6CNC[C@@](C)(C5)O6)cc(F)c4C3)sc2n1 [Example 414, 3-amino-N-[(3R)-5-fluoro-7-[(1S)-1-methyl-9-oxa-3,7-diazabicyclo[3.3.1]nonan-3-yl]-3,4-dihydro-2H-1-benzopyran-3-yl]-6-methylthieno[2,3-b]pyridine-2-carboxamide] | 50 to 200 nM
20 | Cc1ccc2c(N)c(C(=O)N[C@H]3COc4cc(N5C[C@H](OC(F)(F)F)[C@@H](N)C5)ccc4C3)sc2n1 (single isomer, unassigned) [Example 3-10] | 50 to 200 nM
21 | O=C(N[C@H]1COc2cc(N3CCNCC3)ccc2C1)c1cnn2ccccc12 [Example 460, (R)-N-(7-(piperazin-1-yl)chroman-3-yl)pyrazolo[1,5-a]pyridine-3-carboxamide] | > 2000 nM
22 | O=C(N[C@H]1COc2cc(N3CCNCC3)ccc2C1)c1ccc(NCc2ccccn2)nc1 [Example 470, (R)-N-(7-(piperazin-1-yl)chroman-3-yl)-6-((pyridin-2-ylmethyl)amino)nicotinamide] | > 2000 nM
23 | Cc1ccc2c(N)c(C(=O)N[C@H]3COc4cc(N5C[C@@H](N)[C@H](F)C5)ccc4C3)sc2n1 [Example 3-8, 3-amino-N-((R)-7-((3R,4R)-3-amino-4-fluoropyrrolidin-1-yl)chroman-3-yl)-6-methylthieno[2,3-b]pyridine-2-carboxamide] | 1 to 50 nM
24 | O=C(N[C@H]1COc2cc(N3CCNCC3)ccc2C1)c1cnn2c(CO)cccc12 [Example 475, 7-(hydroxymethyl)-N-[(3R)-7-(piperazin-1-yl)-3,4-dihydro-2H-1-benzopyran-3-yl]pyrazolo[1,5-a]pyridine-3-carboxamide] | 200 to 2000 nM
25 | Cc1ccc2c(N)c(C(=O)N[C@H]3COc4cc(N5CC6COCC(C5)C6(F)F)ccc4C3)sc2n1 [Example 5-4, 3-amino-N-((3R)-7-(9,9-difluoro-3-oxa-7-azabicyclo[3.3.1]nonan-7-yl)chroman-3-yl)-6-methylthieno[2,3-b]pyridine-2-carboxamide] | 1 to 50 nM
